Measured values reported in PMC7946891, “Versatility in acyltransferase activity completes chicoric acid biosynthesis in purple coneflower” (Nature Communications, 2021).

Target: T1, EpHCT (Echinacea purpurea, UniProt A0A890VVY1)
T1 construct: full-length CDS, N-terminal 6xHis (pDEST17), E. coli BL21(DE3), Ni-NTA purified
Experiment: in vitro enzyme assay, LC-HRMS product detection
Assay type: biochemical

T1 sequence (A0A890VVY1 1-434): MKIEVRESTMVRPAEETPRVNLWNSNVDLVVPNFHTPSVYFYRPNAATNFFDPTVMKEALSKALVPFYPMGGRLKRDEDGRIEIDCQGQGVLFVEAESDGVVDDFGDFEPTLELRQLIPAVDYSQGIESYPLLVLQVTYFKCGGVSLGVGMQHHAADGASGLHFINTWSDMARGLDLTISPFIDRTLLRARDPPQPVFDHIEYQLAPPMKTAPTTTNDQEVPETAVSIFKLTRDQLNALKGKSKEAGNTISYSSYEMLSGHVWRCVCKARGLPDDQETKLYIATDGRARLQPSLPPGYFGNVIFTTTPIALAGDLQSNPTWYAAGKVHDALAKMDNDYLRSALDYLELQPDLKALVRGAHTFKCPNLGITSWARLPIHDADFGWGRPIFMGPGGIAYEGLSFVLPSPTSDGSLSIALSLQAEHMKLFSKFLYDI

Structure (SMILES)	in vitro enzyme assay, LC-HRMS product detection (p-coumaroyl CoA or caffeoyl CoA as acyl donor)	in vitro enzyme assay, LC-HRMS product detection (shikimic acid as acyl acceptor)
O=C(O)C1=C[C@@H](O)[C@@H](O)[C@H](O)C1 [shikimic acid]	production of p-coumaroyl shikimic acid using p-coumaroyl CoA and shikimic acid as substrates	–
CC(C)(COP(=O)(O)OP(=O)(O)OC[C@H]1O[C@@H](n2cnc3c(N)ncnc32)[C@H](O)[C@@H]1OP(=O)(O)O)[C@@H](O)C(=O)NCCC(=O)NCCSC(=O)/C=C/c1ccc(O)cc1 [p-coumaroyl CoA]	–	production of p-coumaroyl shikimic acid using p-coumaroyl CoA and shikimic acid as substrates
